# Results reported in US20130236568A1, “PHOSPHAPLATINS HAVING ANTI-ANGIOGENIC, ANTI-METASTATIC, AND PRO-APOPTOTIC PROPERTIES AND USES THEREOF” (Ohio University, priority 2011, published 2013).
# How the values were obtained:
# Format in all cases: cell-based, human
# [1] = system: VEGFR2 gene; experiment: Quantitative real-time PCR, VEGFR2 gene expression in A2780/C30 cells
# Description: (§1) Evaluations of selected gene expressions in Human Umbilical Vein Endothelial Cells (HUVEC) and Human Ovarian Cancer Cells by quantitative reverse transcriptase polymerase chain reaction (PCR)
# (§2) Quantitative real-time PCR experiments were performed to estimate the expression of a selection of targeted genes. HUVEC cells (Lonza Walkersville, Frederick, Md.) were cultured on 0.1% gelatin-coated petri dishes by following standard protocols recommended by the vendor in a humidified incubator by maintaining 5% CO2 at 37° C. Human epithelial ovarian cancer cells (A2780) and cisplatin-resistant cells (A2780/C30) were cultured in RPMI 1640 with or without cisplatin (7 μM) and pyrodach-4 (180 μM) for 0, 3, 12 and 24 hours. […] HUVECs were treated with or without cisplatin (7 μM) or pyrodach-4 (90 or 180 μM) for various durations ranging from 1 hr. to 6 hrs.
# (§3) Both treated and untreated cancer cells were maintained in RPMI 1640 medium with 10% fetal bovine serum, 2 μmol L-glutamine, 100 units/mL penicillin-streptomycin and 0.25 units/mL insulin solution, at 37° C. with 5% CO2. RNA was isolated from both the treated and untreated cells. […] The quantity and purity of RNA were determined by UV spectroscopy (NanoDrop 2000 Thermo Scientific, Wilmington, Del.). A minimum absorbance ratio index (ratio of the absorbance measured at 260 nm over that at 280 nm) of 1.9 was used as an acceptable purity. […] The target gene was labeled with a blue dye (FAM, absorbance: 494 nm, emission: 518 nm) while the reference gene was tagged with a green dye (VIC, absorbance: 538 nm, emission: 554 nm). The cDNA concentrations were selected such that the threshold cycle (Ct) values for the target genes were between 17 and 32, most sensitive for the fluorescence detection by ABI StepOnePlus™ instrument used for the measurements.
# (§4) The threshold cycle number (Ct), the point at which the fluorescence of the qPCR reaction just exceeds the threshold fluorescence of the detection system, was determined. […]
# [2] = system: PTEN; experiment: Quantitative real-time PCR, PTEN expression in A2780/C30 cells
# Description: as §1
# (§5) Quantitative real-time PCR experiments were performed to estimate the expression of a selection of targeted genes. HUVEC cells (Lonza Walkersville, Frederick, Md.) were cultured on 0.1% gelatin-coated petri dishes by following standard protocols recommended by the vendor in a humidified incubator by maintaining 5% CO2 at 37° C. […]
# as §3, with “CO2.” for “CO2. RNA was isolated from both the treated and untreated cells.”, “The cDNA concentrations were selected such that the threshold cycle (Ct) values for the target genes were between 17 and 32, most sensitive for the fluorescence detection by ABI StepOnePlus™ instrument used for the measurements.” left out
# as §4
# [3] = system: BAX; experiment: Expression of key genes with and without p53 inhibitor (Table 3): BAX; conditions: positive = manifold increase, negative = decrease vs untreated cells
# Description: as §2
# as §3, with “The cDNA concentrations were selected such that the threshold cycle (Ct) values for the target genes were between 17 and 32, most sensitive for the fluorescence detection by ABI StepOnePlus™ instrument used for the measurements.” left out
# [4] = system: BID; experiment: Expression of key genes with and without p53 inhibitor (Table 3): BID; conditions: positive = manifold increase, negative = decrease vs untreated cells
# Description: as §2
# as §3, with “The cDNA concentrations were selected such that the threshold cycle (Ct) values for the target genes were between 17 and 32, most sensitive for the fluorescence detection by ABI StepOnePlus™ instrument used for the measurements.” left out
# [5] = system: PUMA; experiment: Expression of key genes with and without p53 inhibitor (Table 3): PUMA; conditions: positive = manifold increase, negative = decrease vs untreated cells
# Description: as §2
# as §3, with “The cDNA concentrations were selected such that the threshold cycle (Ct) values for the target genes were between 17 and 32, most sensitive for the fluorescence detection by ABI StepOnePlus™ instrument used for the measurements.” left out
# [6] = system: VEGFR-2; experiment: Expression of key genes with and without p53 inhibitor (Table 3): VEGFR-2; conditions: positive = manifold increase, negative = decrease vs untreated cells
# Description: as §2
# as §3, with “The cDNA concentrations were selected such that the threshold cycle (Ct) values for the target genes were between 17 and 32, most sensitive for the fluorescence detection by ABI StepOnePlus™ instrument used for the measurements.” left out
# [7] = system: PUMA; experiment: Quantitative real-time PCR, PUMA expression in HUVEC; conditions: HUVEC treated with pyrodach-4
# Description: as §1, §5
# as §3, with “CO2.” for “CO2. RNA was isolated from both the treated and untreated cells.”, “The cDNA concentrations were selected such that the threshold cycle (Ct) values for the target genes were between 17 and 32, most sensitive for the fluorescence detection by ABI StepOnePlus™ instrument used for the measurements.” left out
# as §4
# [8] = system: PTEN; experiment: Quantitative real-time PCR, PTEN expression in HUVEC; conditions: HUVEC treated with pyrodach-4
# Description: as §1, §5
# as §3, with “CO2.” for “CO2. RNA was isolated from both the treated and untreated cells.”, “The cDNA concentrations were selected such that the threshold cycle (Ct) values for the target genes were between 17 and 32, most sensitive for the fluorescence detection by ABI StepOnePlus™ instrument used for the measurements.” left out
# as §4
# [9] = system: caspase-3; experiment: Quantitative real-time PCR, caspase-3 expression in HUVEC; conditions: HUVEC treated with pyrodach-4
# Description: as §1, §5
# as §3, with “CO2.” for “CO2. RNA was isolated from both the treated and untreated cells.”, “The cDNA concentrations were selected such that the threshold cycle (Ct) values for the target genes were between 17 and 32, most sensitive for the fluorescence detection by ABI StepOnePlus™ instrument used for the measurements.” left out
# as §4
# [10] = system: A2780/C30 cells; experiment: Cell death detection assay with ELISA, A2780/C30 cells
# Description: In these experiments, ovarian cancer cells were treated with pyrodach-4 in the presence and absence of inhibitors PFT-α (an inhibitor p53) and LY29400 (an inhibitor of PI3K).
# The different treatment groups from left to right are: control, 7 μM cisplatin, Con+PFT-α, 180 μM D4, 180 μM D4+PFT-α, 180 μM D4+LY294002. Apoptosis was quantified using the Cell Death Detection ELISA from Roche.
# A2780 and A2780/C30 cells were grown in monolayers, trypsinized and suspended in supplemented RPMI 1640 media as described in Example 5. All the treatments on the Fc/A2780 and Fc/A2780/C30 cell samples were carried out in triplicate. The ELISA was performed according to the manufacturer's instructions. Briefly, 50,000 cells were plated for each treatment and the cells were allowed to adhere for 4-6 hours. Cells were then either incubated with media alone (untreated sample) or with pyrodach-4 or cisplatin in the concentrations indicated above. DNA of the treated and untreated cells was assayed for nucleosomal DNA using the ELISA kit (purchased from Roche Diagnostics, Mannheim, Germany). The cells were lysed for 30 minutes using the lysis buffer. After centrifuging, 10% (v/v) supernanant was incubated with anti-histone-biotin and anti-DNA-peroxidase. After two hour incubation, the pellets were washed three times and incubated with the substrate solution. The absorbances were measured at 405 and 490 nm for each treatment type using SPECTRA Max M2 multichannel fluorescence plate reader (Molecular Devices, Sunnyvale, Calif.). The absorbances of the treated samples were normalized to the substrate solution.
substance,measurement,setting,value
"trans-(±)-1,2-cyclohexanediamine-trans-dihydroxo(pyrophosphato) platinum(IV) [Pyrodach-4]",Normalized expression of VEGFR2 gene,"[1]; A2780/C30 (cisplatin-resistant), positive = manifold increase, negative = relative decrease vs untreated cells, cisplatin 7 μM, pyrodach-4 180 μM",−2.0
same,Suppression of VEGFR-2 gene expression,[1]; cisplatin-resistant human ovarian cancer cells,≤ 50%
same,Expression of the PTEN gene compared to control,[2],2.3 fold
same,Normalized expression of PTEN,"[2]; pyrodach-4 alone, control = 1.0",2.3
same,Expression of BAX,[3]; Pyrodach-4 + PFT-α (p53 inhibitor),1.0
same,Expression of BAX,"[3]; Pyrodach-4 treatment only, cell line not given",2.8
same,Expression of BID,[4]; Pyrodach-4 + PFT-α,1.0
same,Expression of BID,[4]; Pyrodach-4 treatment only,1.8
same,Expression of PUMA,[5]; Pyrodach-4 + PFT-α,4.4
same,Expression of PUMA,[5]; Pyrodach-4 treatment only,16.6
same,Expression of VEGFR-2,[6]; Pyrodach-4 + PFT-α,−1.6
same,Expression of VEGFR-2,[6]; Pyrodach-4 treatment only,−1.9
same,Over-expression of PUMA,[7],10-15 fold
same,Over-expression of PTEN,[8],4-8 fold
same,Over-expression of caspase-3,[9],2-3 fold
same,Apoptotic cell death (ELISA absorbance),[10]; 7 μM cisplatin or 180 μM D4,unambiguously showed cell death
same,Effect of p53 and PI3K inhibitors on apoptotic cell death (ELISA absorbance),[10]; 180 μM D4 with PFT-α 15 μM or LY294002 30 μM,no effects
